Tests used:
Test in all cases: relative viability (nuclei count vs DMSO), 5 days (fraction); higher = more cells survive
SK-MES-1 = tested on: SK-MES-1
How it was run: (§1)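 Lung cancer cell lines were pin-tool dosed in 1536-well plates on the day after seeding, with either a lone drug or a fixed anchor-drug dose plus five library-drug doses (not always all listed) in √10 steps. Nuclei were counted on 4× images after 5 days. Relative viability is the ratio of treated-well to vehicle-well nuclei counts, with each value a median of duplicate plates.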

SW 900 = tested on: SW 900
How it was run: as §1

LU99A = tested on: LU99A
How it was run: as §1

ABC-1 = tested on: ABC-1
How it was run: as §1

NCI-H2228 = tested on: NCI-H2228
How it was run: as §1

SK-LU-1 = tested on: SK-LU-1
How it was run: as §1

LXF-289 = tested on: LXF-289
How it was run: as §1

HOP-62 = tested on: HOP-62
How it was run: as §1

NCI-H1944 = tested on: NCI-H1944
How it was run: as §1

NCI-H1993 = tested on: NCI-H1993
How it was run: as §1

A-427 = tested on: A-427
How it was run: as §1

NCI-H596 = tested on: NCI-H596
How it was run: as §1

NCI-H2009 = tested on: NCI-H2009
How it was run: as §1

NCI-H1792 = tested on: NCI-H1792
How it was run: as §1

SW 1573 = tested on: SW 1573
How it was run: as §1

NCI-H1793 = tested on: NCI-H1793
How it was run: as §1

PC-3 [JPC-3] = tested on: PC-3 [JPC-3]
How it was run: as §1

NCI-H2170 = tested on: NCI-H2170
How it was run: as §1

EMC-BAC-2 = tested on: EMC-BAC-2
How it was run: as §1

HARA = tested on: HARA
How it was run: as §1

COR-L23 = tested on: COR-L23
How it was run: as §1

NCI-H3122 = tested on: NCI-H3122
How it was run: as §1

LK-2 = tested on: LK-2
How it was run: as §1

NCI-H727 = tested on: NCI-H727
How it was run: as §1

## COc1cc(N2CCC(C(N)=O)CC2)ccc1Nc1nc(N)c(Cl)c(Nc2ccccc2S(=O)(=O)C(C)C)n1 [HG-5-88-01] + Cc1nc(Nc2ncc(C(=O)Nc3c(C)cccc3Cl)s2)cc(N2CCN(CCO)CC2)n1 [Dasatinib] (partner 0.075 µM)
SK-MES-1; first compound 0.04 µM
  relative viability: 0.335
SK-MES-1; first compound 0.1265 µM
  relative viability: 0.304
SK-MES-1; first compound 0.4 µM
  relative viability: 0.124
SK-MES-1; first compound 1.265 µM
  relative viability: 0.112
SK-MES-1; first compound 4 µM
  relative viability: 0.155
SW 900; first compound 0.04 µM
  relative viability: 0.848
SW 900; first compound 0.1265 µM
  relative viability: 0.548
SW 900; first compound 0.4 µM
  relative viability: 0.391
SW 900; first compound 1.265 µM
  relative viability: 0.578
SW 900; first compound 4 µM
  relative viability: 0.17
LU99A; first compound 0.04 µM
  relative viability: 0.592
LU99A; first compound 0.1265 µM
  relative viability: 0.496
LU99A; first compound 0.4 µM
  relative viability: 0.434
LU99A; first compound 1.265 µM
  relative viability: 0.21
LU99A; first compound 4 µM
  relative viability: 0.237
ABC-1; first compound 0.04 µM
  relative viability: 0.5
ABC-1; first compound 0.1265 µM
  relative viability: 0.583
ABC-1; first compound 0.4 µM
  relative viability: 0.389
ABC-1; first compound 1.265 µM
  relative viability: 0.457
ABC-1; first compound 4 µM
  relative viability: 0.304
NCI-H2228; first compound 0.04 µM
  relative viability: 0.106
NCI-H2228; first compound 0.1265 µM
  relative viability: 0.0974
NCI-H2228; first compound 0.4 µM
  relative viability: 0.0904
NCI-H2228; first compound 1.265 µM
  relative viability: 0.101
NCI-H2228; first compound 4 µM
  relative viability: 0.0733
SK-LU-1; first compound 0.04 µM
  relative viability: 0.178
SK-LU-1; first compound 0.1265 µM
  relative viability: 0.182
SK-LU-1; first compound 0.4 µM
  relative viability: 0.106
SK-LU-1; first compound 1.265 µM
  relative viability: 0.123
SK-LU-1; first compound 4 µM
  relative viability: 0.0874
LXF-289; first compound 0.04 µM
  relative viability: 0.252
LXF-289; first compound 0.1265 µM
  relative viability: 0.198
LXF-289; first compound 0.4 µM
  relative viability: 0.116
LXF-289; first compound 1.265 µM
  relative viability: 0.132
LXF-289; first compound 4 µM
  relative viability: 0.11
HOP-62; first compound 0.04 µM
  relative viability: 0.682
HOP-62; first compound 0.1265 µM
  relative viability: 0.606
HOP-62; first compound 0.4 µM
  relative viability: 0.487
HOP-62; first compound 1.265 µM
  relative viability: 0.444
HOP-62; first compound 4 µM
  relative viability: 0.253
NCI-H1944; first compound 0.04 µM
  relative viability: 0.205
NCI-H1944; first compound 0.1265 µM
  relative viability: 0.201
NCI-H1944; first compound 0.4 µM
  relative viability: 0.233
NCI-H1944; first compound 1.265 µM
  relative viability: 0.191
NCI-H1944; first compound 4 µM
  relative viability: 0.188
NCI-H1993; first compound 0.04 µM
  relative viability: 0.633
NCI-H1993; first compound 0.1265 µM
  relative viability: 0.569
NCI-H1993; first compound 0.4 µM
  relative viability: 0.502
NCI-H1993; first compound 1.265 µM
  relative viability: 0.475
NCI-H1993; first compound 4 µM
  relative viability: 0.581
A-427; first compound 0.04 µM
  relative viability: 0.77
A-427; first compound 0.1265 µM
  relative viability: 0.686
A-427; first compound 0.4 µM
  relative viability: 0.676
A-427; first compound 1.265 µM
  relative viability: 0.746
A-427; first compound 4 µM
  relative viability: 0.431
NCI-H596; first compound 0.04 µM
  relative viability: 0.6
NCI-H596; first compound 0.1265 µM
  relative viability: 0.494
NCI-H596; first compound 0.4 µM
  relative viability: 0.544
NCI-H596; first compound 1.265 µM
  relative viability: 0.416
NCI-H596; first compound 4 µM
  relative viability: 0.288
NCI-H2009; first compound 0.04 µM
  relative viability: 0.26
NCI-H2009; first compound 0.1265 µM
  relative viability: 0.251
NCI-H2009; first compound 0.4 µM
  relative viability: 0.161
NCI-H2009; first compound 1.265 µM
  relative viability: 0.141
NCI-H2009; first compound 4 µM
  relative viability: 0.156
NCI-H1792; first compound 0.04 µM
  relative viability: 0.959
NCI-H1792; first compound 0.1265 µM
  relative viability: 0.693
NCI-H1792; first compound 0.4 µM
  relative viability: 0.78
NCI-H1792; first compound 4 µM
  relative viability: 0.525
SW 1573; first compound 0.04 µM
  relative viability: 0.425
SW 1573; first compound 0.1265 µM
  relative viability: 0.426
SW 1573; first compound 0.4 µM
  relative viability: 0.353
SW 1573; first compound 1.265 µM
  relative viability: 0.279
SW 1573; first compound 4 µM
  relative viability: 0.266
NCI-H1793; first compound 0.1265 µM
  relative viability: 0.617
NCI-H1793; first compound 0.4 µM
  relative viability: 0.355
NCI-H1793; first compound 4 µM
  relative viability: 0.336
PC-3 [JPC-3]; first compound 0.04 µM
  relative viability: 1.03
PC-3 [JPC-3]; first compound 0.1265 µM
  relative viability: 0.982
PC-3 [JPC-3]; first compound 0.4 µM
  relative viability: 0.902
PC-3 [JPC-3]; first compound 1.265 µM
  relative viability: 0.936
PC-3 [JPC-3]; first compound 4 µM
  relative viability: 0.814
NCI-H2170; first compound 0.04 µM
  relative viability: 0.502
NCI-H2170; first compound 0.1265 µM
  relative viability: 0.441
NCI-H2170; first compound 0.4 µM
  relative viability: 0.498
NCI-H2170; first compound 1.265 µM
  relative viability: 0.165
NCI-H2170; first compound 4 µM
  relative viability: 0.269
EMC-BAC-2; first compound 0.04 µM
  relative viability: 0.31
EMC-BAC-2; first compound 0.1265 µM
  relative viability: 0.343
EMC-BAC-2; first compound 0.4 µM
  relative viability: 0.217
EMC-BAC-2; first compound 1.265 µM
  relative viability: 0.243
EMC-BAC-2; first compound 4 µM
  relative viability: 0.218
HARA; first compound 0.04 µM
  relative viability: 0.25
HARA; first compound 0.1265 µM
  relative viability: 0.255
HARA; first compound 0.4 µM
  relative viability: 0.147
HARA; first compound 1.265 µM
  relative viability: 0.113
HARA; first compound 4 µM
  relative viability: 0.219
COR-L23; first compound 0.04 µM
  relative viability: 0.536
COR-L23; first compound 0.1265 µM
  relative viability: 0.465
COR-L23; first compound 0.4 µM
  relative viability: 0.436
COR-L23; first compound 1.265 µM
  relative viability: 0.374
COR-L23; first compound 4 µM
  relative viability: 0.169
NCI-H3122; first compound 0.04 µM
  relative viability: 0.542
NCI-H3122; first compound 0.1265 µM
  relative viability: 0.209
NCI-H3122; first compound 0.4 µM
  relative viability: 0.149
NCI-H3122; first compound 1.265 µM
  relative viability: 0.161
NCI-H3122; first compound 4 µM
  relative viability: 0.109
LK-2; first compound 0.04 µM
  relative viability: 0.334
LK-2; first compound 0.1265 µM
  relative viability: 0.235
LK-2; first compound 0.4 µM
  relative viability: 0.173
LK-2; first compound 1.265 µM
  relative viability: 0.247
LK-2; first compound 4 µM
  relative viability: 0.184
NCI-H727; first compound 0.04 µM
  relative viability: 0.335
NCI-H727; first compound 0.1265 µM
  relative viability: 0.334
NCI-H727; first compound 0.4 µM
  relative viability: 0.282
NCI-H727; first compound 1.265 µM
  relative viability: 0.173
NCI-H727; first compound 4 µM
  relative viability: 0.217

Source: the supplement of paper PMC10307832
